Experimental findings from ChEMBL document CHEMBL2417406, “Exploring the orthosteric binding site of the γ-aminobutyric acid type A receptor using 4-(Piperidin-4-yl)-1-hydroxypyrazoles 3- or 5-imidazolyl substituted: design, synthesis, and pharmacological evaluation” (J Med Chem, 2013) are described below.

Molecules are shown by their SMILES. A value given as a limit tells only on which side of the number the result lay.

Assay [1] in a line: Displacement of [3H] muscimol from rat GABA A receptor. For orientation: Loss of bound radioactivity is the signal in a displacement assay; it reports binding, not function.
The target of assay [2] is T1, GABA-A receptor; alpha-1/beta-2/gamma-2 (Homo sapiens, UniProt P14867+P18507+P47870).
T1 sequence (P14867 whole entry): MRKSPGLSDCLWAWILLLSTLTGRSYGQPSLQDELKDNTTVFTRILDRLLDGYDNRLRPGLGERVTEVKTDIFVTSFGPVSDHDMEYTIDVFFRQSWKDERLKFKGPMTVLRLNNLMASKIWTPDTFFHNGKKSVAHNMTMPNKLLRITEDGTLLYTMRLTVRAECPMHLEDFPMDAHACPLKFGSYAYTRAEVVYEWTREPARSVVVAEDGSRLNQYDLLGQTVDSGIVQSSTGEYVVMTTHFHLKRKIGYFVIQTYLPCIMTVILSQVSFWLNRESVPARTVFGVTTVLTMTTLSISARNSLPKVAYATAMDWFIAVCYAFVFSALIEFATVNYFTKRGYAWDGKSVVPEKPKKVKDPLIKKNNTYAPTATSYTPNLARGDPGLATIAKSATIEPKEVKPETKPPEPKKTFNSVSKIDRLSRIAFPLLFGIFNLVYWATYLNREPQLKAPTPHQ
T1 sequence (P47870 whole entry): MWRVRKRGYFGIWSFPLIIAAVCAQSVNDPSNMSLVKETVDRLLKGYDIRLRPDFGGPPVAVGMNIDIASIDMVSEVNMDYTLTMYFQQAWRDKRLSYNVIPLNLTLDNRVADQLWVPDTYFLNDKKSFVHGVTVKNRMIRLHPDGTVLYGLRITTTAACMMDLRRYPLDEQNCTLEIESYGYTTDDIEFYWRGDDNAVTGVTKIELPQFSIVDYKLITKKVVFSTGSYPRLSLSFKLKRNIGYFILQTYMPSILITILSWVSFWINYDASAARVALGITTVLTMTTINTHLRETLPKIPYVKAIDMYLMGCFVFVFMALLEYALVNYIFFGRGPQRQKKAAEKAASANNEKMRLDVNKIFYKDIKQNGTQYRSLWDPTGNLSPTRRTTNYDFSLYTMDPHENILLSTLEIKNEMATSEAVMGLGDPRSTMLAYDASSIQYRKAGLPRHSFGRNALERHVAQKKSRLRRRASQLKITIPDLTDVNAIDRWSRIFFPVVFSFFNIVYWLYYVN
T1 sequence (P18507 whole entry): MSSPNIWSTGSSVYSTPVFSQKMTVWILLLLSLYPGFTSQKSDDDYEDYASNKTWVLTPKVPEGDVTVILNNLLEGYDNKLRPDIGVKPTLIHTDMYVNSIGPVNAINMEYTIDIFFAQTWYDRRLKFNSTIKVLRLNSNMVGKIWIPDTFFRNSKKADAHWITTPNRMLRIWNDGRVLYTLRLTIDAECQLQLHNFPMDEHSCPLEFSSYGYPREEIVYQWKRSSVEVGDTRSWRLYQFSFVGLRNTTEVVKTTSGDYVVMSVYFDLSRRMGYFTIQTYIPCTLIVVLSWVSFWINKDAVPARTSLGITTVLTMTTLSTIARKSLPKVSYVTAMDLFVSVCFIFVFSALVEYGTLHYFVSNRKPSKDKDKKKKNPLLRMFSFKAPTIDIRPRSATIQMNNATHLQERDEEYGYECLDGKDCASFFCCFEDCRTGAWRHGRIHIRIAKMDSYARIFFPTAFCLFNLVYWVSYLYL
Nature of the assay: Antagonist activity at human alpha1beta2gamma2S GABA-A receptor expressed in tsA201 cells assessed as inhibition of GABA-induced effect after 30 mins by FLIPR membrane potential blue assay. It is filed as cell-based.

`On1cc(C2CCNCC2)cn1` displayed a Ki in assay [1] of 10 µM. The IC50 in assay [2] is > 500 µM.

Turning to `On1cc(C2CCNCC2)c(-c2cccc(-c3ccccc3)c2)n1`, the affinity in assay [1], expressed as Ki, was 0.03 µM.

With `On1cc(C2CCNCC2)c(-c2c[nH]cn2)n1`, in assay [1], the Ki turned out to be 5.1 µM and the negative logarithm of the Ki (pKi) amounted to 5.31. In addition, in assay [2], the IC50 worked out at 30 µM.

In assay [1], `On1cc(C2CCNCC2)c(-c2cn(Cc3ccccc3)c(Cl)n2)n1` gave a Ki of 0.74 µM and a pKi of 6.14.

In assay [1], `On1cc(C2CCNCC2)c(-c2c[nH]c(-c3ccccc3)n2)n1` yielded a Ki of 2.5 µM and a pKi of 5.61. Besides, the IC50 in assay [2] came to 9.7 µM.

In assay [1], `On1cc(C2CCNCC2)c(-c2cn(Cc3ccccc3)c(-c3ccccc3)n2)n1` yielded a Ki of 0.28 µM and a pKi of 6.57. The IC50 in assay [2] is 0.21 µM.

As for `On1cc(C2CCNCC2)c(-c2cn(Cc3ccccc3)cn2)n1`, in assay [1], the Ki came to 0.75 µM and the pKi stood at 6.13.

Consider `On1ncc(C2CCNCC2)c1-c1c[nH]cn1`, for which, in assay [1], the affinity corresponds to a Ki of 7.5 µM and the pKi is reported as 5.14.

With `On1ncc(C2CCNCC2)c1-c1cn(Cc2ccccc2)c(Cl)n1`, in assay [1], the Ki was determined as 0.83 µM and the pKi was found to be 6.09.

For `On1ncc(C2CCNCC2)c1-c1c[nH]c(-c2ccccc2)n1`, in assay [1], affinity was put at a Ki of 0.014 µM and the pKi worked out at 7.86. Moreover, the concentration for half-maximal inhibition (IC50) in assay [2] amounted to 0.69 µM.

In assay [1], `On1ncc(C2CCNCC2)c1-c1cn(Cc2ccccc2)c(-c2ccccc2)n1` returned a Ki of 0.23 µM and a pKi of 6.64. Besides, in assay [2], the IC50 is 0.78 µM.

`COc1ccc(-c2ccc(=N)n(CCCC(=O)O)n2)cc1` [GABAZINE]: the affinity in assay [1], expressed as Ki, was […]. For the same compound, in assay [2], the IC50 worked out at 0.24 µM.

By Ki is commonly meant the equilibrium dissociation constant of an inhibitor or competing ligand from its target. A high value points to a looser hold on the target. One may read the IC50 as the midpoint of a concentration-inhibition curve. What is called pKi is the Ki on a negative log10 scale, so that one unit is a factor of ten. Read a low pKi as a large Ki.
